System: mouse antiserum
Test: ic-ELISA serum titer and inhibition rate of mice for the fusion experiment (Table S2)
Assay type: binding
Details: prometryn 1000 ng/mL
Experimental: The Institute of Quality Standards and Testing Technology for Agro-Products’ Experimental Animal Welfare and Ethical Committee (IQSTAP-2021-05) approved the use of animals in experiments. The buffer solution (0.01 M PBS, pH = 7.4) was used to dilute the immunogen (2 mg/mL) to 1 mg/mL. After that, Freund’s adjuvant was added to an identical volume of 0.1 mL in a sterile glass vial. The mixture was placed on a magnetic stirrer and stirred and mixed rapidly in an ice bath to fully emulsify. Six 7-week-old female BALB/c mice were selected for immunization. At the beginning of the third immunization, 3–5 days after each immunization, blood was taken from the orbit, incubated at 37 °C for 0.5 h and 4 °C for 2 h, and centrifuged at 1000 r/min for 10 min. Serum was collected, and the serum titer was determined. The immune strategy of mice was the same as that previously reported. Freund’s […] vaccination, and for the subsequent booster vaccination, Freund’s incomplete adjuvant was utilized. Freund’s adjuvant and immunogen during immunization should be 1:1 and thoroughly mixed until dripping into the water to prevent diffusion. The interval of booster immunization was 2 weeks, and the immune dose was 0.1 mg. Three days before fusion, the mice with the best performance were immunized with a dose of 0.05 mg. The mice were intraperitoneally injected without adjuvant.
The ic-ELISA method was used to screen the best-performing fusion mouse sera. They were used to establish the standard curve of antibodies by detecting the supernatant of positive cells. The buffer required for ic-ELISA was the same as previously reported. The specific steps of the operation are as follows: (1) The coated antigen was added to the microplate by diluting it with the required coating solutions (CBS, pH 9.6, 0.05 mol/L). Each well contained 100 µL, which was incubated at 37 °C for three h before being washed three times with washing buffer (PBST, PBS containing 0.1% Tween-20). (2) With sample dilution buffer (PBSTG, PBST containing 0.1% gelatin), the standard prometryn sample and the antiserum/antibody from mice were diluted to the required concentration. The microplate was incubated for 30 min at 37 °C with 50 µL of diluted antiserum or antibody and standard samples of various concentrations. PBST was used three times to wash the dishes. (3) Then, 100 µL of PBSTG-diluent IgG HRP (labeled goat anti-mouse IgG with HRP) was added to each well. After 30 min at 37 °C, the plate was cleaned three times with PBST. (4) Each well was incubated for 15 min in the dark at 25 °C with 100 µL of TMB color developing solution. To stop the reaction, 50 µL of the hydrochloric acid solution was added to each well. The absorbance at OD450 nm was measured with a TECAN Infinite M200 PRO microplate reader from Männedorf, Switzerland.
Ic-ELISA was used to measure the inhibition rate and serum titer of six immunized mice. Three days before cell fusion, Balb/c mice with the highest performance were selected and immunized. SP2/0 myeloma cells and mouse spleen cells were combined for fusion. After fusion, the supernatant of hybridoma cells was determined by indirect competitive enzyme-linked immunosorbent assay, the positive wells were screened, and the hybridoma cells were cloned to obtain hybridoma cell lines that can stably secrete monoclonal antibodies against prometryn. After the positive cell lines were expanded and cultured, mice treated with paraffin 7 days earlier were injected intraperitoneally. Ascites were collected after abdominal swelling and centrifuged at 4 °C at 1000 rpm, and the potency and inhibition rate of ascites were determined and frozen at −20 °C for purification. The 7D4 mAb against prometryn was obtained by purifying the […] with the octanoic acid-saturated ammonium sulfate method. […]

Q: How did the “IR (inhibition rate)” value (dilution of immunogen 1×103, serum dilution 1.28×105) turn out when `CSc1nc(NC(C)C)nc(NC(C)C)n1` [Prometryn, 2-methylthio-4,6-di(isopropylamino)-1,3,5-triazobenzene] was run?
A: -7.66%

Q: What about the “IR (inhibition rate)” value (dilution of immunogen 1×103, serum dilution 1.6×104) of the same compound?
A: 65.86%

Q: What about the “IR (inhibition rate)” value (dilution of immunogen 1×103, serum dilution 2×103) of the same compound?
A: 85.70%

Q: What about the “IR (inhibition rate)” value (dilution of immunogen 1×103, serum dilution 2.56×105) of the same compound?
A: 75.15%

Q: What about the “IR (inhibition rate)” value (dilution of immunogen 1×103, serum dilution 3.2×104) of the same compound?
A: 46.44%

Q: What about the “IR (inhibition rate)” value (dilution of immunogen 1×103, serum dilution 4×103) of the same compound?
A: 88.04%

Q: What about the “IR (inhibition rate)” value (dilution of immunogen 1×103, serum dilution 6.4×104) of the same compound?
A: 35.52%

Q: And the “IR (inhibition rate)” value (dilution of immunogen 1×103, serum dilution 8×103)?
A: 81.46%

Q: What about the “IR (inhibition rate)” value (dilution of immunogen 1.6×104, serum dilution 1.28×105) of the same compound?
A: -52.80%

Q: And the “IR (inhibition rate)” value (dilution of immunogen 1.6×104, serum dilution 1.6×104)?
A: 58.64%

Q: And the “IR (inhibition rate)” value (dilution of immunogen 1.6×104, serum dilution 2×103)?
A: 85.05%

Q: What about the “IR (inhibition rate)” value (dilution of immunogen 1.6×104, serum dilution 2.56×105) of the same compound?
A: 71.56%

Q: What about the “IR (inhibition rate)” value (dilution of immunogen 1.6×104, serum dilution 3.2×104) of the same compound?
A: 28.55%

Q: And the “IR (inhibition rate)” value (dilution of immunogen 1.6×104, serum dilution 4×103)?
A: 82.62%

Q: What about the “IR (inhibition rate)” value (dilution of immunogen 1.6×104, serum dilution 6.4×104) of the same compound?
A: 11.18%

Q: And the “IR (inhibition rate)” value (dilution of immunogen 1.6×104, serum dilution 8×103)?
A: 81.51%

Q: What about the “IR (inhibition rate)” value (dilution of immunogen 2×103, serum dilution 1.28×105) of the same compound?
A: 14.21%

Q: And the “IR (inhibition rate)” value (dilution of immunogen 2×103, serum dilution 1.6×104)?
A: 61.99%

Q: What about the “IR (inhibition rate)” value (dilution of immunogen 2×103, serum dilution 2×103) of the same compound?
A: 85.14%

Q: What about the “IR (inhibition rate)” value (dilution of immunogen 2×103, serum dilution 2.56×105) of the same compound?
A: 74.90%

Q: What about the “IR (inhibition rate)” value (dilution of immunogen 2×103, serum dilution 3.2×104) of the same compound?
A: 51.64%

Q: What about the “IR (inhibition rate)” value (dilution of immunogen 2×103, serum dilution 4×103) of the same compound?
A: 86.95%

Q: What about the “IR (inhibition rate)” value (dilution of immunogen 2×103, serum dilution 6.4×104) of the same compound?
A: 10.11%

Q: And the “IR (inhibition rate)” value (dilution of immunogen 2×103, serum dilution 8×103)?
A: 79.58%

Q: And the “IR (inhibition rate)” value (dilution of immunogen 3.2×104, serum dilution 1.28×105)?
A: 17.80%

Q: What about the “IR (inhibition rate)” value (dilution of immunogen 3.2×104, serum dilution 1.6×104) of the same compound?
A: 74.44%

Q: And the “IR (inhibition rate)” value (dilution of immunogen 3.2×104, serum dilution 2×103)?
A: 84.75%

Q: And the “IR (inhibition rate)” value (dilution of immunogen 3.2×104, serum dilution 2.56×105)?
A: 72.21%

Q: What about the “IR (inhibition rate)” value (dilution of immunogen 3.2×104, serum dilution 3.2×104) of the same compound?
A: 51.77%

Q: And the “IR (inhibition rate)” value (dilution of immunogen 3.2×104, serum dilution 4×103)?
A: 68.48%

Q: And the “IR (inhibition rate)” value (dilution of immunogen 3.2×104, serum dilution 6.4×104)?
A: 28.68%

Q: And the “IR (inhibition rate)” value (dilution of immunogen 3.2×104, serum dilution 8×103)?
A: 80.75%

Q: What about the “IR (inhibition rate)” value (dilution of immunogen 4×103, serum dilution 1.28×105) of the same compound?
A: 7.62%

Q: What about the “IR (inhibition rate)” value (dilution of immunogen 4×103, serum dilution 1.6×104) of the same compound?
A: 63.91%

Q: What about the “IR (inhibition rate)” value (dilution of immunogen 4×103, serum dilution 2×103) of the same compound?
A: 86.78%

Q: And the “IR (inhibition rate)” value (dilution of immunogen 4×103, serum dilution 2.56×105)?
A: 78.43%

Q: What about the “IR (inhibition rate)” value (dilution of immunogen 4×103, serum dilution 3.2×104) of the same compound?
A: 47.70%

Q: What about the “IR (inhibition rate)” value (dilution of immunogen 4×103, serum dilution 4×103) of the same compound?
A: 87.39%

Q: What about the “IR (inhibition rate)” value (dilution of immunogen 4×103, serum dilution 6.4×104) of the same compound?
A: 24.90%

Q: And the “IR (inhibition rate)” value (dilution of immunogen 4×103, serum dilution 8×103)?
A: 81.74%

Q: And the “IR (inhibition rate)” value (dilution of immunogen 8×103, serum dilution 1.28×105)?
A: 7.17%

Q: What about the “IR (inhibition rate)” value (dilution of immunogen 8×103, serum dilution 1.6×104) of the same compound?
A: 58.20%

Q: What about the “IR (inhibition rate)” value (dilution of immunogen 8×103, serum dilution 2×103) of the same compound?
A: 87.26%

Q: And the “IR (inhibition rate)” value (dilution of immunogen 8×103, serum dilution 2.56×105)?
A: 59.68%

Q: And the “IR (inhibition rate)” value (dilution of immunogen 8×103, serum dilution 3.2×104)?
A: 15.68%

Q: What about the “IR (inhibition rate)” value (dilution of immunogen 8×103, serum dilution 4×103) of the same compound?
A: 84.15%

Q: What about the “IR (inhibition rate)” value (dilution of immunogen 8×103, serum dilution 6.4×104) of the same compound?
A: 7.82%

Q: And the “IR (inhibition rate)” value (dilution of immunogen 8×103, serum dilution 8×103)?
A: 76.22%

— paper PMC9855386, “Obtaining a Monoclonal Antibody against a Novel Prometryn-Like Hapten and Characterization of Its Selectivity for Triazine Herbicides” (Biosensors, 2022)
